Data as given in patent US20240026461A1, “BCL10 MUTATIONS AS BIOMARKERS FOR TARGETED THERAPY IN B CELL LYMPHOMAS” (priority 2022, published 2024).
Numbering of substitutions follows the chain as printed. Names may count otherwise. Like-named read-outs stand apart in the source and are kept apart here. Each block holds one molecule with its values, some of them ahead of it.

Key:
HBL1^WT = experiment: Growth inhibition assay (CellTiter Glo), HBL1 cells expressing BCL10 WT; format: cell-based; conditions: Homo sapiens, 96 h
Experimental: (§1) DLBCL cell lines were cultured in exponential condition and the cell growth was determined by CellTiter Glo (Promega). 3000-5000 cells were seeded and cultured in each well of 384 well plate for 96 h and treated with compounds every 48 h. Luminescence was read at the endpoint with the Synergy NEO microplate reader (BioTek). The value of compound treated cells was normalized to their vehicle treated controls and then used to calculate IC50 in GraphPad Prism (RRID:SCR_002798).
(§2) Given the distinct functional profiles, CARD11 dependencies, and MALT1 activation effects of the BCL10 CARD and truncation mutants, the inventors designed experiments to evaluate whether, and to what extent, these mutant BCL10 proteins might confer BTK inhibitor resistance. Isogenic ABC-DLBCL cells expressing BCL10WT, BCL10^R58Q and BCL10^E140X proteins were treated with escalating doses of three chemically distinct covalent BTK inhibitors: ibrutinib, acalabrutinib, or zanubrutinib. The cellular proliferation rates of the treated cells were measured using an ATP fluorescence assay after 96 hours of drug exposure.
(§3) Isogenic BCL10^WT, BCL10^R58Q and BCL10^E140X ABC-DLBCLs were exposed to increasing concentrations of each of these compounds for 96 hours.

HBL1^R58Q = experiment: Growth inhibition assay (CellTiter Glo), HBL1 cells expressing BCL10 R58Q; format: cell-based; conditions: Homo sapiens, 96 h
Experimental: as §1, §2, §3

HBL1^E140X = experiment: Growth inhibition assay (CellTiter Glo), HBL1 cells expressing BCL10 E140X; format: cell-based; conditions: Homo sapiens, 96 h
Experimental: as §1, §2, §3

OCI-LY10^WT = experiment: Growth inhibition assay (CellTiter Glo), OCI-Ly10 cells expressing BCL10 WT; format: cell-based; conditions: Homo sapiens, 96 h
Experimental: as §1, §2, §3

OCI-LY10^R58Q = experiment: Growth inhibition assay (CellTiter Glo), OCI-Ly10 cells expressing BCL10 R58Q; format: cell-based; conditions: Homo sapiens, 96 h
Experimental: as §1, §2, §3

OCI-LY10^E140X = experiment: Growth inhibition assay (CellTiter Glo), OCI-Ly10 cells expressing BCL10 E140X; format: cell-based; conditions: Homo sapiens, 96 h
Experimental: as §1, §2, §3

[1] = test system: isogenic ABC-DLBCL cells expressing BCL10^WT, BCL10^R58Q and BCL10^E140X; experiment: Growth inhibition of isogenic ABC-DLBCL cells, response described in words; format: cell-based, human; conditions: 96 hours
Experimental: as §1, §2, §3

[2] = target: T1, BCL10^E140X (recombinant, after 3C cleavage of the MBP tag)
T1 chain: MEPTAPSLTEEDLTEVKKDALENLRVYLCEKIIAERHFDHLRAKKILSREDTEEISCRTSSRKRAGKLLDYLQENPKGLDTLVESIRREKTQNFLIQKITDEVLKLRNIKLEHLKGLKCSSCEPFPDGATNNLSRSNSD

[3] = target: T2, BCL10^R58Q (recombinant, full-length, after 3C cleavage of the MBP tag)
T2 chain: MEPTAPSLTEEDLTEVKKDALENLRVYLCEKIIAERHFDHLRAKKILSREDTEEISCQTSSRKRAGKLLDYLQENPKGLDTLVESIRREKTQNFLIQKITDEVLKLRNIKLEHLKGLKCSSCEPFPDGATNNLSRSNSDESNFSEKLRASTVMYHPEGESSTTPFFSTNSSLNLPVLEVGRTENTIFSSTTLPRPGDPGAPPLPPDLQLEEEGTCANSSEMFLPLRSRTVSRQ

[4] = target: T3, BCL10^WT (recombinant, full-length, after 3C cleavage of the MBP tag)
T3 chain: T2 chain with Q58R

[5] = target: T4, Full length His-tagged MALT1 (human, UniProt Q9UDY8 2-824); experiment: negative staining EM of BCL10 filaments incubated with MALT1
T4 construct: mature; also called purified, full length MALT1; FL MALT1; not shown: His tag
T4 sequence (looked up): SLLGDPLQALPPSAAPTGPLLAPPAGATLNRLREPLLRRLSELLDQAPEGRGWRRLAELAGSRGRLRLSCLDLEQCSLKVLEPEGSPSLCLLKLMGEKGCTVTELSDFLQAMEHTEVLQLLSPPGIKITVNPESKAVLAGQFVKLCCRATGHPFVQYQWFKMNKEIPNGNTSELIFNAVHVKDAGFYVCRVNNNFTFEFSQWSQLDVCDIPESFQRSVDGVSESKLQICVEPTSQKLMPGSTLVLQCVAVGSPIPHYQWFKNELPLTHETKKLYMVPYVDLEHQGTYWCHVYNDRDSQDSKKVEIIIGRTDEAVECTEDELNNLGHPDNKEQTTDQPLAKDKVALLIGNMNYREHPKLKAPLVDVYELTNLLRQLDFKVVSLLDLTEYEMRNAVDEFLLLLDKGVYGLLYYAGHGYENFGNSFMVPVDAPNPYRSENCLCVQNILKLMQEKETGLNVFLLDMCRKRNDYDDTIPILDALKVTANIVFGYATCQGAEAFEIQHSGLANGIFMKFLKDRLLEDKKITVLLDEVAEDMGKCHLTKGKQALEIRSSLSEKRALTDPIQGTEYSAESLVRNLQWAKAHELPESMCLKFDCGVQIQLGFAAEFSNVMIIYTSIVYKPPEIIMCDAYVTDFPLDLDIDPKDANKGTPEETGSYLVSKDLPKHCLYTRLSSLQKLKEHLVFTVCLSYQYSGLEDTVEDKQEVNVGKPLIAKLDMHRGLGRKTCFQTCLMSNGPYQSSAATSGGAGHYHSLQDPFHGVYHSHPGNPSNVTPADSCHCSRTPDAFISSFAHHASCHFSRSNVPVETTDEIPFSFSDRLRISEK
Experimental: This new MALT1 binding domain is deleted from BCL10^E140X. The inventors next explored whether there was any impairment in MALT1 recruitment to BCL10 filaments, by generating BCL10^WT and BCL10^E140X filaments in vitro and incubating them with purified, full length MALT1 followed by negative staining electron microscopy (EM). […] However, this experiment may not provide sufficient resolution to show whether MALT1 distribution on the different BCL10 polymers was altered. Therefore, cryo-EM data were then collected on a Titan Krios microscope operating ats 300 keV and equipped with a Falcon II direct electron detector. The cryo-EM structure of BCL10^E140X filaments in complex with MALT1 was thus determined at 4.3 Å resolution.
Given that this new MALT1 binding domain is deleted from BCL10^E140X we next explored whether there was any impairment in MALT1 recruitment to BCL10 filaments, by generating BCL10^WT and BCL10^E140X filaments in vitro and incubating them with purified, full length MALT1 followed by negative staining EM. […] The structure of the BCL10^E140X filament with MALT1 was highly similar to that of the BCL10^WT filament with MALT1 at 4.9 Å resolution, in which the DDS of MALT1 bind the CARD of BCL10 and decorate the outside of the core CARD filament (FIG. 11G-I).

[6] = target: the molecule itself; experiment: confocal fluorescence microscopy of Alexa488-BCL10 filaments 4 h after 3C cleavage of MBP; self-association
Experimental: To determine the mechanism through which BCL10 mutants might confer a biochemical gain of function, full-length BCL10^WT, BCL10^E140X and BCL10^R58Q fused to a 3C protease-cleavable maltose binding protein (MBP) at the N-terminus to keep the proteins in a monomeric state were expressed and purified (FIG. 9A). The purified proteins were labeled with Alexa488 through cysteine residues in the unstructured C-terminal region. Spontaneous filament formation was then assessed by confocal fluorescence microscopy as a function of BCL10 concentration 4 h after mixing with the 3C protease to remove the MBP tag. […] The kinetics of filament formation by these proteins was imaged at […] concentration, which is above the concentration of polymerization for WT and these mutant BCL10 proteins using time lapse confocal fluorescence microscopy.

[7] = read-out: IC50, growth inhibition, BTK inhibitors
[8] = read-out: IC50, growth inhibition, MALT1 inhibitors

IC50 (OCI-LY10^WT; [7]): 6.38 ± 0.35 nM | IC50 (OCI-LY10^R58Q; [7]): 7.69 ± 0.59 nM | IC50 (OCI-LY10^E140X; [7]): 5.39 ± 0.77 nM
Molecule: CC#CC(=O)N1CCC[C@H]1c1nc(-c2ccc(C(=O)Nc3ccccn3)cc2)c2c(N)nccn12 [Acalabrutinib]
IC50 (HBL1^WT; [7]): 4.75 ± 2.11 nM | IC50 (HBL1^R58Q; [7]): 5.54 ± 0.32 nM | IC50 (HBL1^E140X; [7]): 28.2 ± 21.2 nM

IC50 (OCI-LY10^WT; [8]): 70 ± 6 nM | IC50 (OCI-LY10^R58Q; [8]): 240 ± 50 nM | IC50 (OCI-LY10^E140X; [8]): 90 ± 60 nM
Molecule: CO[C@H](c1c(NC(=O)Nc2cnc(-n3nccn3)c(Cl)c2)cnc2cc(Cl)nn12)[C@@H](C)OC [MLT-748]
IC50 (HBL1^WT; [8]): 1940 ± 200 nM | IC50 (HBL1^R58Q; [8]): 3320 ± 1460 nM | IC50 (HBL1^E140X; [8]): 540 ± 500 nM | growth response in words ([1]; BCL10^R58Q ABC-DLBCL cells): generally sensitive | growth response in words ([1]; BCL10^WT ABC-DLBCL cells): generally sensitive

IC50 (OCI-LY10^WT; [7]): 1.74 ± 0.08 nM | IC50 (OCI-LY10^R58Q; [7]): 1.81 ± 0.33 nM | IC50 (OCI-LY10^E140X; [7]): 2.86 ± 0.13 nM
Molecule: C=CC(=O)N1CCC([C@@H]2CCNc3c(C(N)=O)c(-c4ccc(Oc5ccccc5)cc4)nn32)CC1 [Zanubrutinib]
IC50 (HBL1^WT; [7]): 1.46 ± 0.32 nM | IC50 (HBL1^R58Q; [7]): 1.58 ± 0.06 nM | IC50 (HBL1^E140X; [7]): 9.31 ± 6.22 nM

B1: Full length His-tagged MALT1 (protein)
chain: T4 sequence (looked up)
BCL10 polymerization kinetics by fluorescence quenching (3 µM Alexa488-BCL10, MALT1 at 0, 1.5, 3, 6 and 12 µM) [2]: there was little suppression of BCL10^E140X polymerization by MALT1 at any dose | BCL10 polymerization kinetics by fluorescence quenching (3 µM Alexa488-BCL10, MALT1 at 0, 1.5, 3, 6 and 12 µM) [3]: increasing doses of MALT1 suppressed BCL10^WT and BCL10^R58Q filament formation in a dose dependent manner | BCL10 polymerization kinetics by fluorescence quenching (3 µM Alexa488-BCL10, MALT1 at 0, 1.5, 3, 6 and 12 µM) [4]: increasing doses of MALT1 suppressed BCL10^WT and BCL10^R58Q filament formation in a dose dependent manner

binding result [5]: binds
B2: BCL10^WT (recombinant, full-length, after 3C cleavage of the MBP tag) (other)
chain: T2 chain with Q58R
modifications: Alexa488 (C5-maleimide) on cysteine residues in the confocal and quenching assays
notes: Made as His-MBP-3C site-BCL10 (vector pDB-His-MBP); MBP removed by 3C protease to start filament formation; Forms helical filaments (number of copies not fixed); also called BCL10 FL; BCL10 WT filaments
concentration of polymerization [6]: ~500 nM

B3: BCL10^R58Q (recombinant, full-length, after 3C cleavage of the MBP tag) (other)
chain: T2 chain
modifications: Alexa488 (C5-maleimide) on cysteine residues in the confocal and quenching assays
notes: Made as His-MBP-3C site-BCL10; MBP removed by 3C protease; Forms filaments; also called R58Q filaments
concentration of polymerization [6]: ~250 nM

binding result [5]: binds
B4: BCL10^E140X (recombinant, after 3C cleavage of the MBP tag) (other)
chain: T1 chain
modifications: Alexa488 (C5-maleimide) on cysteine residues in the confocal and quenching assays
notes: Range 1-139 from the name E140X; Made as His-MBP-3C site-BCL10; MBP removed by 3C protease; also called E140X filaments; BCL10 (1-140)
concentration of polymerization [6]: ≤ 100 nM
